# Test results: ChEMBL document CHEMBL1201862, “PubChem BioAssay data set” (2004)
# Activity calls are given as the source filed them. For most assays here, no stated cut-off is given here; in the data, actives have a measured IC50 and inactives only a lower limit.
# Assays:
# [1] = target: Sphingosine 1-phosphate receptor 5 (Homo sapiens, UniProt Q9H228); assay: Late stage counterscreen assay for S1P4 antagonists: Fluorescence dose response cell-based screening assay for antagonists of the Sphingosine 1-Phosphate Receptor 5 (S1P5). [Related pubchem assays (depositor defined):AID1510, AID1524, AID1692, AID1853, AID2332, AID489009, AID489017]; format: functional
# Chain of Sphingosine 1-phosphate receptor 5 (Q9H228 whole entry): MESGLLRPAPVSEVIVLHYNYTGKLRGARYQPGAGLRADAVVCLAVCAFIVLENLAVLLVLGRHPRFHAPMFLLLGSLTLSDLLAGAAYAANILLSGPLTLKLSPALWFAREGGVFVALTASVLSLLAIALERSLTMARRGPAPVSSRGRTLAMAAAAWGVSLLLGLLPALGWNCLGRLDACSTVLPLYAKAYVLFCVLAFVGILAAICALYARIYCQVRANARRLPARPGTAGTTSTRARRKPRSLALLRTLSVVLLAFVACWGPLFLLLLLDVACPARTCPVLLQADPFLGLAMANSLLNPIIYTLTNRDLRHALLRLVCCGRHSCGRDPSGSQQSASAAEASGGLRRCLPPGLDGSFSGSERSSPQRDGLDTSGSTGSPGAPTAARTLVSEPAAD
# [2] = target: Sphingosine 1-phosphate receptor 3 (Homo sapiens, UniProt Q99500); assay: Late stage counterscreen assay for S1P4 antagonists: Fluorescence dose response cell-based screening assay for antagonists of the Sphingosine 1-Phosphate Receptor 3 (S1P3). [Related pubchem assays (depositor defined):AID1510, AID1524, AID1692, AID1853, AID2332, AID489009, AID489017]; format: functional
# Chain of Sphingosine 1-phosphate receptor 3 (Q99500 whole entry): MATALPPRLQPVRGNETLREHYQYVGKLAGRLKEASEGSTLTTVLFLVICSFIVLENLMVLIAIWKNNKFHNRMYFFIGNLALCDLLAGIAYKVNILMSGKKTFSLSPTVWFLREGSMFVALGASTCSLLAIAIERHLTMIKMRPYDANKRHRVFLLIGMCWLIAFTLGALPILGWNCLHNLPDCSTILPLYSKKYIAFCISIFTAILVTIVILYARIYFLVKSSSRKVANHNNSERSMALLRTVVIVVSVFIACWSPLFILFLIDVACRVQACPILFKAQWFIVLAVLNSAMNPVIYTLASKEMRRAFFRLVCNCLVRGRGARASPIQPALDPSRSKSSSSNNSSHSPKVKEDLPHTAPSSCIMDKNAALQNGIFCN
# [3] = target: Sphingosine 1-phosphate receptor 1 (Homo sapiens, UniProt P21453); assay: Late stage counterscreen assay for S1P4 antagonists: Fluorescence dose response cell-based screening assay for antagonists of the Sphingosine 1-Phosphate Receptor 1 (S1P1). [Related pubchem assays (depositor defined):AID1510, AID1524, AID1692, AID1853, AID2332, AID489009, AID489017]; format: functional
# [4] = target: Sphingosine 1-phosphate receptor 2 (Homo sapiens, UniProt O95136); assay: Late stage counterscreen assay for S1P4 antagonists: Fluorescence dose response cell-based screening assay for antagonists of the Sphingosine 1-Phosphate Receptor 2 (S1P2). [Related pubchem assays (depositor defined):AID1510, AID1524, AID1692, AID1853, AID2332, AID489009, AID489017]; format: functional
# Chain of Sphingosine 1-phosphate receptor 2 (O95136 whole entry): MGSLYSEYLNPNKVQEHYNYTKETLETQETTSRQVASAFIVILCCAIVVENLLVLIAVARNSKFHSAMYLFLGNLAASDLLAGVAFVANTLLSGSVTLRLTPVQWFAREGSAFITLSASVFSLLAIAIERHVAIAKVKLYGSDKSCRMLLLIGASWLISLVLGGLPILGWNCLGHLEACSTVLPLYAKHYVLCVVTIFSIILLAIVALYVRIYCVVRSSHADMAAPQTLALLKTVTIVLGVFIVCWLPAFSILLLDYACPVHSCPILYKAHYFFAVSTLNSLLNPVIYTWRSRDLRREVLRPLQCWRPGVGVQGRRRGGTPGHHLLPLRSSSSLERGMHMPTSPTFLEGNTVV
# [5] = target: G-protein coupled receptor 55 (Homo sapiens, UniProt Q9Y2T6); assay: GPR55 antagonists, SAR follow-up, counter-screen for GPR35 antagonist project, imaging, image-based (AID 2397); format: functional
# Chain of G-protein coupled receptor 55 (Q9Y2T6 whole entry): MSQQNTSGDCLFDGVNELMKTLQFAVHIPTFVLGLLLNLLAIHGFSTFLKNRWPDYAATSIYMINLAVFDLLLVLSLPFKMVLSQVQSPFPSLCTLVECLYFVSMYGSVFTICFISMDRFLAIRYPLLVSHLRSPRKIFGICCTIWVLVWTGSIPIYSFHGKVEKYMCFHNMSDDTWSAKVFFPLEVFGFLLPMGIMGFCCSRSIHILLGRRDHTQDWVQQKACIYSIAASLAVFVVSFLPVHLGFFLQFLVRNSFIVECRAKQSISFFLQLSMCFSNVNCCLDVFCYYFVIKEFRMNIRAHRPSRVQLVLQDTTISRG
# [6] = target: T1, Tyrosine-protein phosphatase non-receptor type 7 (Homo sapiens, UniProt P35236); format: functional
# T1 sequence (P35236 whole entry): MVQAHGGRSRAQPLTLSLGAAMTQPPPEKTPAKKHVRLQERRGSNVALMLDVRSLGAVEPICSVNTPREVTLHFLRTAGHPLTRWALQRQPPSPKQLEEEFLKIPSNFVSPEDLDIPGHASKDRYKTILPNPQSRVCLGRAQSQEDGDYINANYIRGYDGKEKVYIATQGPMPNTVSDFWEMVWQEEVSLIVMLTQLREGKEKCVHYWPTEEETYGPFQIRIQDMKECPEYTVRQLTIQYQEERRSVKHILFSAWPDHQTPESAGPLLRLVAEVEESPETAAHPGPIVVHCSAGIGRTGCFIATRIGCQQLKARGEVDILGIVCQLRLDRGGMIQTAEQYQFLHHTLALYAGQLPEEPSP
# [7] = target: T2, Voltage-gated N-type calcium channel alpha-1B subunit/Amyloid beta A4 precursor protein-binding family A member 1 (Homo sapiens, UniProt Q00975+Q02410); format: protein assay
# T2 sequence (Q00975 whole entry): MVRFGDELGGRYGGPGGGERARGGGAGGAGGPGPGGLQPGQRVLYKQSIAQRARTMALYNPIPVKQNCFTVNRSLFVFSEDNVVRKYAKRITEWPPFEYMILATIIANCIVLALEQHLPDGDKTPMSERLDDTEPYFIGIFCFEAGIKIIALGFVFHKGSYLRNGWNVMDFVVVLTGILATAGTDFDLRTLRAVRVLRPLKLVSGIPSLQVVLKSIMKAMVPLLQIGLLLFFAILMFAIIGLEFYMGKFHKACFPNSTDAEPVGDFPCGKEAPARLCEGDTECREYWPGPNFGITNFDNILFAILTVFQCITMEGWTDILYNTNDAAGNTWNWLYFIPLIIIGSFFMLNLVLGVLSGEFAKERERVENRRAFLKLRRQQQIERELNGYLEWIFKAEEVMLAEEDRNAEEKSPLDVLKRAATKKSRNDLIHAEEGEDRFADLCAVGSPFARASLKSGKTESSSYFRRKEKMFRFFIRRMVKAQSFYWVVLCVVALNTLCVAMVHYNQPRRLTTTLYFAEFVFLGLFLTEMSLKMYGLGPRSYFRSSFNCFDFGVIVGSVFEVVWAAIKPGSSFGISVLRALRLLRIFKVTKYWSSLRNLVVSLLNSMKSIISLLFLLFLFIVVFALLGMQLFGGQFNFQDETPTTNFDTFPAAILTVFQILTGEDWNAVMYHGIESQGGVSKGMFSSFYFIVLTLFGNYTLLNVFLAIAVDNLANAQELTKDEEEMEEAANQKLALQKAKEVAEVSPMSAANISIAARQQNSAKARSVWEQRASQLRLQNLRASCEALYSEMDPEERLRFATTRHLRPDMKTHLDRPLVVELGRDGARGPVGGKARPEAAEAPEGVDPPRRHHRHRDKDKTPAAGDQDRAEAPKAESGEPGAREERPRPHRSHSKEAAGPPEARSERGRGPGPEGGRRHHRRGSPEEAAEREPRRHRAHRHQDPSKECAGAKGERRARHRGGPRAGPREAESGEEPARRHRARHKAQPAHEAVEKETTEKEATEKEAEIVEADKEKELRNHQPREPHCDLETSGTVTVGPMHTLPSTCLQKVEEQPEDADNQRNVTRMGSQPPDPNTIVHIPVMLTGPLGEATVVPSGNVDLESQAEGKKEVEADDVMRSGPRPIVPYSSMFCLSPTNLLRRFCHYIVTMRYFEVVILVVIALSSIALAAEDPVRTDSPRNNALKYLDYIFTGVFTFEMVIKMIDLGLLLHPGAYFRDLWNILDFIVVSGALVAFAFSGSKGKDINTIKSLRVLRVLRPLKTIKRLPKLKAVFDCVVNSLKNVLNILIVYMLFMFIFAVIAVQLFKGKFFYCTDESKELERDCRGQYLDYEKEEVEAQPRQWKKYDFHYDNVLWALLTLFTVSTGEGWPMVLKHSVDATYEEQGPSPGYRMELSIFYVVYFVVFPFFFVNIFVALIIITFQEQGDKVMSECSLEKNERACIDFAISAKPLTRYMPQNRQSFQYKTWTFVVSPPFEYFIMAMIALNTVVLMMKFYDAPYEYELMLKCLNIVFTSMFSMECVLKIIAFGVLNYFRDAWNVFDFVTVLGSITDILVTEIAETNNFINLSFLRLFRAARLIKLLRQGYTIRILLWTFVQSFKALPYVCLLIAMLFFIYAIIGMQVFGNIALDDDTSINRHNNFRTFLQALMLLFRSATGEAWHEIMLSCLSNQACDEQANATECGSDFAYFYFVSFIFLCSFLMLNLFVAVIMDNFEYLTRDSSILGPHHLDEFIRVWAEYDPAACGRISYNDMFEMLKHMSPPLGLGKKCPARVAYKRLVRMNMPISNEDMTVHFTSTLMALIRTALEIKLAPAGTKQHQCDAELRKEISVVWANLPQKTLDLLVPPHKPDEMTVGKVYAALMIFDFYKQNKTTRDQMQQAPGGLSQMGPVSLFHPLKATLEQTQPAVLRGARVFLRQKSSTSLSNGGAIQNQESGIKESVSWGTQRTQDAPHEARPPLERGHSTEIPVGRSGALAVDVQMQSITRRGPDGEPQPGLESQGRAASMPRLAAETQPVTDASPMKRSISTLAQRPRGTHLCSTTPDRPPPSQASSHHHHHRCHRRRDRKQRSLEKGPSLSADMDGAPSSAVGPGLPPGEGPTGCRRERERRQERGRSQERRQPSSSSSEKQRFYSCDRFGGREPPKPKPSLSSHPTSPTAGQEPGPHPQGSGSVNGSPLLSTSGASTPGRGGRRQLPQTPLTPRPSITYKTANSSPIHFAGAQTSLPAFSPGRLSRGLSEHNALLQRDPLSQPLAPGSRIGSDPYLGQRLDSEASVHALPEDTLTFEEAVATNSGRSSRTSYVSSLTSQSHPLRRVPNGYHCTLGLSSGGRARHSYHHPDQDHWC
# T2 sequence (Q02410 whole entry): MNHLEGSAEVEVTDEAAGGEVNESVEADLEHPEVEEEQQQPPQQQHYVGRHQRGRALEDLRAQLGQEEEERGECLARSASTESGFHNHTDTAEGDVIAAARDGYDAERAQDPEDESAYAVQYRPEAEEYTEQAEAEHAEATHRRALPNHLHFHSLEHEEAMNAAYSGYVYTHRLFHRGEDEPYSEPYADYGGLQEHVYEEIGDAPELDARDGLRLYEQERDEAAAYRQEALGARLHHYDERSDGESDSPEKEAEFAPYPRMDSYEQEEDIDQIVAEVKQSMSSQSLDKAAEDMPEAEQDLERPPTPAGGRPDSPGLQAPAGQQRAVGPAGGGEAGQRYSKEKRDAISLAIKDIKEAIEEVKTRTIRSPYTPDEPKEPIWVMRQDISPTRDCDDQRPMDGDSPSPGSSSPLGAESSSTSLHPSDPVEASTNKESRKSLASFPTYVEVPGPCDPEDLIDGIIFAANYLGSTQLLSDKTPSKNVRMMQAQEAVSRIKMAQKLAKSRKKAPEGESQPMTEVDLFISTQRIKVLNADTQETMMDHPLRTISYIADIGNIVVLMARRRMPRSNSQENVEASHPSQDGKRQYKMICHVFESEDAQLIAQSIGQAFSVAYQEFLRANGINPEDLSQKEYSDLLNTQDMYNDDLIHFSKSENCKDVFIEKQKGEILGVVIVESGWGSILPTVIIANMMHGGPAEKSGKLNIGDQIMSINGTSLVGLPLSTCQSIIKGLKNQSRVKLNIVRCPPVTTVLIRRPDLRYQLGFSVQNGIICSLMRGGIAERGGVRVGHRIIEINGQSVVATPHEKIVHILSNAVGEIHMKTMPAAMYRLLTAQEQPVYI
# [8] = target: T2, Voltage-gated N-type calcium channel alpha-1B subunit/Amyloid beta A4 precursor protein-binding family A member 1; format: protein assay; remark: listed apart in the source
# [9] = target: T3, Tyrosine-protein phosphatase non-receptor type 22 (Homo sapiens, UniProt Q9Y2R2); format: functional
# T3 sequence (Q9Y2R2 whole entry): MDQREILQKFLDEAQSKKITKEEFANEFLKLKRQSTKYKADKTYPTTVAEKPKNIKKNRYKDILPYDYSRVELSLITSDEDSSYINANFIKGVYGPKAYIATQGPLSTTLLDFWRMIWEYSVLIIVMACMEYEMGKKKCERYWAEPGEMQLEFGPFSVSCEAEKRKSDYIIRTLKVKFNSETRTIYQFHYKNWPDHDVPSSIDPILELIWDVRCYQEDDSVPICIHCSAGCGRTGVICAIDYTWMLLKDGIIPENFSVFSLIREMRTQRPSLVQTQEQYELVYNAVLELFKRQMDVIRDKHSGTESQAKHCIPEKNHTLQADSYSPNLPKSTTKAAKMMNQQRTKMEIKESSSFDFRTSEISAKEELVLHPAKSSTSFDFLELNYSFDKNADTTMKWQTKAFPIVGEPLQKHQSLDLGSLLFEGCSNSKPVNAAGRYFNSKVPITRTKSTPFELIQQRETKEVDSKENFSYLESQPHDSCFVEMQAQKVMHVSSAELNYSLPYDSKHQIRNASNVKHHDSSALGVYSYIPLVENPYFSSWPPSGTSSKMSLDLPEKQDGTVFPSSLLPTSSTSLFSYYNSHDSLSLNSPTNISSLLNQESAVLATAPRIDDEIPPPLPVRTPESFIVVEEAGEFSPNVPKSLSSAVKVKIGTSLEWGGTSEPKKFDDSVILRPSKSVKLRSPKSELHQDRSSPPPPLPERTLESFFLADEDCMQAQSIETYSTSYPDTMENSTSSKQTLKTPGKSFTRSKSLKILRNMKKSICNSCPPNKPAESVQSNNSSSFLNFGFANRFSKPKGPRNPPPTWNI
# [10] = target: T3, Tyrosine-protein phosphatase non-receptor type 22; format: functional; remark: listed apart in the source
# [11] = target: DNA dC->dU-editing enzyme APOBEC-3G (Homo sapiens, UniProt Q9HC16); assay: Dose Response confirmation of small molecule APOBEC3G DNA Deaminase Inhibitors via a fluorescence-based single-stranded DNA deaminase assay. [Related pubchem assays (depositor defined):AID493012, AID493028]; format: functional
# Chain of DNA dC->dU-editing enzyme APOBEC-3G (Q9HC16 whole entry): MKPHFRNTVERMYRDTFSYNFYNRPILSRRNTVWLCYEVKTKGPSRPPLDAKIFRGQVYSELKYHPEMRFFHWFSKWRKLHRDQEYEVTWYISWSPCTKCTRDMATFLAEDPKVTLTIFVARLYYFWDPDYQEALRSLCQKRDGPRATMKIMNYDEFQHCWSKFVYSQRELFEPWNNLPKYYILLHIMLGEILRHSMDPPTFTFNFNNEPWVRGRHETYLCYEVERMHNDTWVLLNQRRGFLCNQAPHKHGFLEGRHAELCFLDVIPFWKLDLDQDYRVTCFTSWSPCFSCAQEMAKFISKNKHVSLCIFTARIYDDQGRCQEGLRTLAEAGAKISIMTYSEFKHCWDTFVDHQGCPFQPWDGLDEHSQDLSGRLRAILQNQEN
compound,measurement,setting,value
Cc1ccc2ccccc2c1NC(=O)c1ccc(-c2cc(Cl)ccc2Cl)o1,IC50,[1],> 25 µM (inactive)
same,IC50,[2],> 25 µM (inactive)
same,IC50,[3],> 25 µM (inactive)
same,IC50,[4],> 25 µM (inactive)
O=C(Nc1ccc2nc(SCc3ccc(Cl)c(Cl)c3)sc2c1)c1ccccc1Br,IC50,[5],> 32 µM (inactive)
COc1ccc(NC(=O)CN2C(=O)/C(=C3\SC(=S)N(CCC(=O)O)C3=O)c3ccccc32)cc1,IC50,[6],6.84 µM (active)
same,IC50,[7],14.5 µM (active)
same,IC50,[8],> 50 µM (inactive)
same,IC50,[9],6.11 µM (active)
same,IC50,[10],13.8 µM (active)
same,IC50,[11],40.9 µM (active)
